From patent US20240307361A1, “METHOD FOR DIAGNOSING AND TREATING IRRITABLE BOWEL SYNDROME” (Centre for Chinese Herbal Medicine Drug Development Limited, priority 2023, published 2024)

Assays:
TAAR1 [1] = target: T1, TAAR1 (Mus musculus, UniProt Q923Y8); assay: EPPTB in antibiotic-treated mice transplanted with IBS-D fecal microbiota (FMT); type: in vivo; settings: EPPTB 10 mg/kg, p<0.05
T1 construct: is expressed in EC cells in the GI tract; from tissue; host or cells: living mice (conventional, antibiotic-treated, or wild-type littermates of Taar1 KO, C57Bl/6J)
Protocol: A broad-spectrum antibiotic mixture (ABX) containing vancomycin (100 mg/kg), neomycin (200 mg/kg), metronidazole (200 mg/kg), and ampicillin (200 mg/kg) was used to establish an antibiotic-treated mouse model. Briefly, the antibiotic mixture was administered to mice by oral gavage for 10 consecutive days prior to fecal microbial transplantation (FMT) or the colonization study. For the fecal pellet water content test, 1.5 mL Eppendorf tubes were pre-weighed and used to collect fecal pellets from mice immediately after defecation. The tubes were then closed to measure wet weight. Afterward, the tubes were opened and placed in an oven at 60° C. overnight to measure the dry weight. Fecal pellet water content was measured by subtracting the dry weight from the wet weight and normalizing it to the wet pellet mass. Fecal pellets from mice were also counted within 2 h of the defecation frequency test. Carmine red assay: […] The mice were placed on white sheet paper to track the red pellet in their cages after oral gavage. The total time taken for the appearance of the first red pellet after oral gavage was recorded as gut transit time. Fecal samples from IBS-D patients and HC participants (n=8/group) were prepared as suspensions in PBS at a concentration of (100 mg/mL). […] After the FMT, GI transit, stool consistency, and defecation frequency were measured. […]

TAAR1 [2] = target: T1, TAAR1; assay: EPPTB in antibiotic-treated mice colonized with R. gnavus (ATCC 29149); type: in vivo; settings: EPPTB 10 mg/kg, p<0.05
Protocol: A broad-spectrum antibiotic mixture (ABX) containing vancomycin (100 mg/kg), neomycin (200 mg/kg), metronidazole (200 mg/kg), and ampicillin (200 mg/kg) was used to establish an antibiotic-treated mouse model. Briefly, the antibiotic mixture was administered to mice by oral gavage for 10 consecutive days prior to fecal microbial transplantation (FMT) or the colonization study.
R. gnavus (strain ATCC 29149) was first grown on tryptic soy broth (TSB) agar plates and cultured in TSB broth using a single colony. R. gnavus (strain ATCC 29149) was collected from the medium by centrifuging at 3,500 rpm for 10 min at room temperature. These bacterial strains were then reconstituted in 200 μL of sterilized phosphate-buffered saline and administered to antibiotic-treated mice by oral gavage. Fecal samples were collected daily to measure fecal phenethylamine levels in antibiotic-treated mice before and after oral administration of bacterial strains.
(§1) For the fecal pellet water content test, 1.5 mL Eppendorf tubes were pre-weighed and used to collect fecal pellets from mice immediately after defecation. The tubes were then closed to measure wet weight. Afterward, the tubes were opened and placed in an oven at 60° C. overnight to measure the dry weight. Fecal pellet water content was measured by subtracting the dry weight from the wet weight and normalizing it to the wet pellet mass. Fecal pellets from mice were also counted within 2 h of the defecation frequency test.
(§2) Carmine red assay: Mice were administered 300 μL of 6% carmine red solution (prepared by 0.5% methylcellulose) by oral gavage to measure the GI transit time after treatment with phenethylamine at the indicated dosages. The mice were placed on white sheet paper to track the red pellet in their cages after oral gavage. The total time taken for the appearance of the first red pellet after oral gavage was recorded as gut transit time.

TAAR1 [3] = target: T1, TAAR1; assay: EPPTB on phenethylamine-induced 5-HT elevation in mice intestine tissues cultured ex vivo; type: cell-based; settings: EPPTB 50 μM, p<0.05, FIG. 5I
Protocol: (§3) Mouse and human colonic tissues were collected as previously described. To investigate the effects of phenethylamine on 5-HT levels in mouse and human colon tissues, the colonic tissues were cut into small pieces (0.5 cm) and placed in a 12-well cell culture plate. Colon pieces were added to DMEM/F12 medium containing 5% fetal bovine serum, penicillin-streptomycin (1×), and gentamycin (20 μg/ml), followed by treatment with phenethylamine and EPPTB, as indicated. Colon pieces were incubated at 37° C. with 5% CO2 and 95% air. A 200 μL volume of medium was collected from each well at the indicated time points for the analysis of 5-HT.

TAAR1 [4] = target: T1, TAAR1; assay: TAAR1 antagonist EPPTB in phenethylamine-treated mice; type: in vivo; settings: EPPTB 10 mg/kg, phenethylamine 10 mg/kg, p<0.05
Protocol: (§4) To study phenethylamine and tryptamine effects on 5-HT production, phenethylamine and tryptamine at a dosage of 2 mg/kg, 5 mg/kg and 10 mg/kg (dissolved in 0.5% CMC-Na, sodium carboxymethyl cellulose) were administered to mice by oral gavage. Mice treated with/without phenethylamine and tryptamine were sacrificed under isoflurane anesthesia. Biological samples including serum, duodenum, ileum, proximal colon and distal colon tissues and luminal contents in each intestinal segments were collected at indicated dosages and times and stored at −80° C. until analysis.
as §1, §2
(§5) Colonic tissues were lysed in RIPA buffer containing protease inhibitor cocktails in a tissuelyzer. The tissue lysates were centrifuged at 15,000 rpm for 15 min at 4° C. and quantified by BCA kit for protein concentration. The protein content normalized supernatant was mixed with 5× loading buffer and heated at 98° C. in a dry bath for 10 min. The samples were evaluated according to the western blotting protocol (Abcam). The blots were incubated with HRP-conjugated anti-rabbit IgG or anti-mouse IgG and reacted with enhanced chemiluminescence.

5-HTR4 = target: T2, 5-HTR4 (Homo sapiens, UniProt Q13639); assay: 5-HTR4 antagonist Piboserod on phenethylamine/tryptamine-stimulated 5-HT in QGP-1 cells; type: cell-based; settings: 24 hours, FIG. 11M
T2 construct: endogenous in cells; host or cells: QGP-1
Protocol: (§6) QGP-1 cells were cultured in RPMI 1640 medium supplemented with 10% fetal bovine serum (FBS). QGP-1 is a human pancreatic endocrine cell line that produces 5-HT. To evaluate the effects of phenylalanine, phenethylamine, and phenylacetic acid on 5-HT production, QGP-1 cells were treated with or without phenylalanine, phenethylamine, and phenylacetic acid at the indicated concentrations and times.

mouse intestinal tissues = assay: 5-HT production in mouse intestinal tissues cultured ex vivo; type: cell-based; settings: 25 μM and 50 μM, p<0.05, FIG. 4A-B
Protocol: as §3
(§7) An Agilent 1290 Infinity II UPLC system coupled to a triple quadrupole (QQQ) 6470 mass spectrometer was used for targeted metabolomics profiling. A Waters BEH 2.1×50 mm C18 1.7 μm column with a pre-column was used. The mobile phase used in LC-MS-QQQ was solution A (water with 0.1% formic acid) and solution B (acetonitrile with 0.1% formic acid). The gradients were set as 2% B (0-0.5 min), 2%-30% B (0.5-4 min), […] B (4-6 min), 100% B (6-8 min), 100%-2% B (8-8.1 min) and maintain in 2% B (8.1-10 min). The MS data were collected and processed using Agilent software. The standard list, MRM transition, fragmentor, and collision energy are listed in (Table 3).

human colonic tissues = assay: 5-HT production in human colonic tissues cultured ex vivo; type: cell-based; settings: 50 μM, p<0.05, FIG. 10A
Protocol: as §3, §7

[5] = Phenethylamine level in intestinal tissues and luminal content after oral gavage; type: in vivo, mouse; settings: for concentration at 0 min / concentration at 15 min / concentration at 30 min: mouse, oral
Protocol: as §7, §4

PKA and CaMKII = assay: Western blot of PKA and CaMKII phosphorylation in colonic tissues of phenethylamine-treated mice; type: in vivo, mouse; settings: colonic tissues of mice, 2, 5 and 10 mg/kg, p<0.05
Protocol: as §4, §5

5-HT production = assay: Oral phenethylamine/tryptamine administration in mice: 5-HT levels, GI transit, fecal water content; type: in vivo, mouse; settings: for GI transit / fecal water content / serum and intestinal 5-HT levels: mice, oral administration, 2, 5 and 10 mg/kg, p<0.01
Protocol: as §7, §4, §1, §2

TAAR1 [6] = target: T1, TAAR1; assay: Phenethylamine in Taar1-/- mice and wild-type littermates; type: in vivo; settings: Taar1-/- mice vs wild-type littermates, phenethylamine 10 mg/kg, p<0.05
Protocol: as §1, §2
Taar1 (NM_053205) knockout mouse model (C57Bl/6J) was generated by CRISPR/Cas-mediated genome engineering. All the Taar1 KO mice and their wildtype littermates were genotyped using PCR and Southern blot [F1: […] (SEQ ID NO:3), R1: […] (SEQ ID NO:4), R2: […] (SEQ ID NO:5)]. The product size of F1 and R1 is 989 bp while the product size of F1 and R2 is 625 bp. […]

QGP-1 cells = assay: 5-HT production in QGP-1 cells; type: cell-based, human; settings: 25-200 μM, 24 hours, FIG. 10D-E
Protocol: as §6, §7

[7] = serum of phenethylamine-treated mice, FIG. 5A

T1 sequence (Q923Y8 whole entry): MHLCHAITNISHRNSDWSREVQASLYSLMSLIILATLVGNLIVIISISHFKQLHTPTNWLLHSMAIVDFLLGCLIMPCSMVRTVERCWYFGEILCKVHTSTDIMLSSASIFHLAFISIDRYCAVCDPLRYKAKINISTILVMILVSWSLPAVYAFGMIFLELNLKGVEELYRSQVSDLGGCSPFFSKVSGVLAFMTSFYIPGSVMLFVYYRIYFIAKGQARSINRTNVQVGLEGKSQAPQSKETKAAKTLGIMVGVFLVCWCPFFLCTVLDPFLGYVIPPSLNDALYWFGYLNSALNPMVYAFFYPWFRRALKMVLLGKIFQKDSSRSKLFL
T2 sequence (Q13639 whole entry): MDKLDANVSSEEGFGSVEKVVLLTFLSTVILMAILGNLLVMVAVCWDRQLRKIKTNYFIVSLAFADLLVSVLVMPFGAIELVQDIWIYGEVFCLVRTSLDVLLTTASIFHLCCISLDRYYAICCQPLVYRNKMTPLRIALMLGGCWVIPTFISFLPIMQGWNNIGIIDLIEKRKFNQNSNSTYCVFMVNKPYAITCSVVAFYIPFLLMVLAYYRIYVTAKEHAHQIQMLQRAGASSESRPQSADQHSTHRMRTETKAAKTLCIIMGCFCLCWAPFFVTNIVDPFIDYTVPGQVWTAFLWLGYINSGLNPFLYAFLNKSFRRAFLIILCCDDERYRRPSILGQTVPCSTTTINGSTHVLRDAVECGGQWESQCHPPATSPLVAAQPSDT

For `CCOc1cccc(NC(=O)c2ccc(N3CCCC3)c(C(F)(F)F)c2)c1` [EPPTB, N-(3-ethoxy-phenyl)-4-pyrrolidin-1-yl-3-trifluoromethyl-benzamide], the “pathological changes induced by transplantation of IBS-D fecal microbiota (colonic 5-HT, GI transit, defecation frequency)” value (TAAR1 [1]) was “largely suppressed”, the “R. gnavus-induced 5-HT elevation in serum” value (TAAR1 [2]) was “suppressed by EPPTB treatment” and the “R. gnavus-induced accelerated GI transit” value (TAAR1 [2]) was “suppressed by EPPTB treatment”. The “R. gnavus-induced increased fecal water content” value (TAAR1 [2]) was “suppressed by EPPTB treatment”, the “phenethylamine-induced 5-HT elevation in mice intestine tissues cultured ex vivo” value (TAAR1 [3]) was “suppressed” and the “phenethylamine-induced 5-HT production” value (TAAR1 [4]; mice) was “suppressed”. For the same compound, the “phenethylamine-induced 5-HTP/Trp and 5-HT/5-HTP ratios” value (TAAR1 [4]; mice) was “inhibited by EPPTB treatment”, the “phenethylamine-induced GI transit acceleration” value (TAAR1 [4]; mice) was “suppressed” and the “phenethylamine-induced colonic secretion increase” value (TAAR1 [4]; mice) was “suppressed”. The “phenethylamine-induced increased levels of serum 5-HTP” value (TAAR1 [4]; mice) was “inhibited by EPPTB treatment” and the “phenethylamine-induced activation of PKA and CaMKII” value (TAAR1 [4]; proximal colonic tissues of mice) was “inhibited”.

For `CCCCN1CCC(CNC(=O)c2c3n(c4ccccc24)CCCO3)CC1` [Piboserod], the “5-HT levels stimulated by phenethylamine or tryptamine” value (5-HTR4) was “did not restore 5-HT levels” and the “tryptamine-stimulated 5-HT production” value (5-HTR4) was “modest reduction of tryptamine-stimulated 5-HT production”.

For `NCCc1ccccc1` [phenethylamine], the “5-HT production in mouse intestinal tissues” value (mouse intestinal tissues) was “significantly enhanced 5-HT production”, the “5-HT production in human colonic tissues” value (human colonic tissues) was “significantly enhanced 5-HT production” and the “Phenethylamine level, Concentration” value ([5]; Duodenum, 15 min) was 1082 µg/g. For the same compound, the “Phenethylamine level, Concentration” value ([5]; Luminal content in duodenum, 15 min) was 1245 µg/g, the “Phenethylamine level, Concentration” value ([5]; Luminal content in duodenum, 30 min) was 1200 µg/g and the concentration at 0 min ([5]; luminal content of duodenum, Luminal content in duodenum) was 3000 ng/g. It also gave a concentration at 0 min ([5]; luminal content of ileum, Luminal content in ileum) of 1670 ng/g, a concentration at 15 min ([5]; luminal content of ileum, Luminal content in ileum, 15 min) of 29700 ng/g and a concentration at 30 min ([5]; luminal content of ileum, Luminal content in ileum, 30 min) of 9300 ng/g. The concentration at 0 min ([5]; luminal content of proximal colon, Luminal content in proximal colon) was 3700 ng/g, the concentration at 15 min ([5]; luminal content of proximal colon, Luminal content in proximal colon, 15 min) was 112000 ng/g and the concentration at 30 min ([5]; luminal content of proximal colon, Luminal content in proximal colon, 30 min) was 58900 ng/g. For the same compound, the concentration at 0 min ([5]; Duodenum) was 230 ng/g, the concentration at 30 min ([5]; Duodenum, 30 min) was 879000 ng/g and the concentration at 0 min ([5]; Ileum) was 240 ng/g. For the same compound, the concentration at 15 min ([5]; Ileum, 15 min) was 24000 ng/g, the concentration at 30 min ([5]; Ileum, 30 min) was 8000 ng/g and the concentration at 0 min ([5]; Proximal colon) was 12000 ng/g. The concentration at 15 min ([5]; Proximal colon, 15 min) was 116000 ng/g, the concentration at 30 min ([5]; Proximal colon, 30 min) was 38000 ng/g and the “phosphorylation of PKA and CaMKII” value (PKA and CaMKII) was “an increase in the phosphorylation of these proteins”. For the same compound, the “circulating 5-HTP levels” value (5-HT production; mice, 2, 5 and 10 mg/kg, FIG. 11A-C) was “increase in circulating 5-HTP levels in mice in a dose-dependent manner”, the GI transit (5-HT production) was “accelerated GI transit” and the fecal water content (5-HT production) was “increased fecal water content”. For the same compound, the “serum and intestinal 5-HT levels” value (5-HT production) was “significantly elevated serum and intestinal 5-HT levels”, the 5-HIAA/5-HT ratio (5-HT production; [7]) was “but not the 5-HIAA/5-HT ratio, were increased” and the 5-HT/5-HTP ratio (5-HT production; [7]) was “increased”. The 5-HTP/Trp ratio (5-HT production; [7]) was “increased” and the “phenethylamine-induced changes in 5-HT production, GI transit and secretion under genetic ablation of TAAR1” value (TAAR1 [6]) was “abolished phenethylamine-induced changes in 5-HT production, GI transit, and secretion”.

With `O=C(O)Cc1ccccc1` [phenylacetic acid] the “5-HT levels in QGP-1 cells (precursors and metabolites)” value (shortened to “5-HT levels in QGP-1 cells”) (QGP-1 cells) was “did not change the 5-HT levels”.

With `N[C@@H](Cc1ccccc1)C(=O)O` [phenylalanine] the “5-HT levels in QGP-1 cells” value (QGP-1 cells) was “did not change the 5-HT levels”.

In the case of `NCCc1c[nH]c2ccccc12` [tryptamine], the “5-HT production in mouse intestinal tissues” value (mouse intestinal tissues) is reported as “significantly enhanced 5-HT production”, the “5-HT production in human colonic tissues” value (human colonic tissues) is reported as “significantly enhanced 5-HT production” and the GI transit (5-HT production) is reported as “accelerated GI transit”. The fecal water content (5-HT production) was “increased fecal water content” and the “serum and intestinal 5-HT levels” value (5-HT production) was “significantly elevated serum and intestinal 5-HT levels”.

With `N[C@@H](Cc1c[nH]c2ccccc12)C(=O)O` [tryptophan] the “5-HT levels in QGP-1 cells” value (QGP-1 cells) was “did not change the 5-HT levels”.

For indole acetic acid, the “5-HT levels in QGP-1 cells” value (QGP-1 cells) was “did not change the 5-HT levels”.
